Columns and labels:
[1] = tested on: HCT116 MTAP-deleted cells; test: Cell viability assay (CellTiter-Glo, 7 days), HCT116 MTAP-deleted; details: Homo sapiens, HCT-116, 168 h
[2] = tested on: SDMA signal (PRMT5 inhibition) in HCT116 MTAP-deleted cells; test: Symmetric di-methyl arginine image-based high content screen assay (SDMA assay), HCT116 MTAP-deleted; type: cell-based; details: SDMA assay; for EC50: Homo sapiens, HCT-116, 72 h, 3 days of treatment, cell line not given, taken as HCT116 MTAP-deleted, read-out: EC50 (SDMA assay); for EC50 selectivity (SDMA assay): taken as HCT116 WT versus MTAP-deleted
Method in brief: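 HCT116 MTAP-deleted cells treated with compound until Day 3, then formalin-fixed, permeabilized and immunostained for SDMA, with DAPI nuclear counterstain. Imaged by high-content microscopy; SDMA read-out is mean Alexa 488 intensity per DAPI-defined cell, reflecting PRMT5 inhibition.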

Row | EC50 [2] [nM] | EC50 selectivity (SDMA assay) [2] | Structure (SMILES) | CC50 [1] [nM]
1 | < 1 | 6 | Cn1ncc2c(N)nc3cc(F)c(C(=O)N(Cc4ccc(C(F)(F)F)cc4F)n4ccnc4)cc3c21 [Example 200, 4-amino-7-fluoro-N-[[2-fluoro-4-(trifluoromethyl)phenyl]methyl]-N-imidazol-1-yl-1-methyl-pyrazolo[4,3-c]quinoline-8-carboxamide] | < 100
2 | 1 to 5 | 159 | CC(=O)N(C(C)C)N(Cc1ccc(C(F)(F)F)cn1)C(=O)c1ccc2nc(N)c3cnn(C)c3c2c1 [Example 203, N′-acetyl-4-amino-N′-isopropyl-1-methyl-N-[[5-(trifluoromethyl)-2-pyridyl]methyl]pyrazolo[4,3-c]quinoline-8-carbohydrazide] | 100 to 1000
3 | 1 to 5 | 150 | CCN(C(C)=O)N(Cc1ccc(C(F)(F)F)cn1)C(=O)c1ccc2nc(N)c3cnn(C)c3c2c1 [Example 204, N′-acetyl-4-amino-N′-ethyl-1-methyl-N-[[5-(trifluoromethyl)-2-pyridyl]methyl]pyrazolo[4,3-c]quinoline-8-carbohydrazide] | < 100
4 | < 1 | 44 | CCN(C(C)=O)N(Cc1ccc(C(F)(F)F)cn1)C(=O)c1cc2c(cc1F)nc(N)c1cnn(C)c12 [Example 205, N′-acetyl-4-amino-N′-ethyl-7-fluoro-1-methyl-N-[[5-(trifluoromethyl)-2-pyridyl]methyl]pyrazolo[4,3-c]quinoline-8-carbohydrazide] | < 100
5 | 1 to 5 | 59 | CC(=O)N(C)N(Cc1nc2cc(Cl)ccc2n1C)C(=O)c1cc2c(cc1F)nc(N)c1cnn(C)c12 [Example 210, N′-acetyl-4-amino-N-[(5-chloro-1-methyl-benzimidazol-2-yl)methyl]-7-fluoro-N′,1-dimethyl-pyrazolo[4,3-c]quinoline-8-carbohydrazide] | < 100
6 | 1 to 5 | 80 | Cn1ncc2c(N)nc3cc(F)c(C(=O)N(Cc4nc5cc(Cl)ccc5n4C)N4CCCCC4=O)cc3c21 [Example 212, 4-Amino-N-[(5-chloro-1-methyl-benzimidazol-2-yl)methyl]-7-fluoro-1-methyl-N-(2-oxo-1-piperidyl)pyrazolo[4,3-c]quinoline-8-carboxamide] | < 100
7 | < 1 | 74 | CC(=O)N(C)N(Cc1nc2ccc(F)cc2s1)C(=O)c1cc2c(cc1F)nc(N)c1cnn(C)c12 [Example 214, N′-acetyl-4-amino-7-fluoro-N-[(6-fluoro-1,3-benzothiazol-2-yl)methyl]-N′,1-dimethyl-pyrazolo[4,3-c]quinoline-8-carbohydrazide] | < 100
8 | < 1 | 90 | CC(=O)NN(Cc1nc2cc(C(F)(F)F)ccc2s1)C(=O)c1ccc2nc(N)c3cnn(C)c3c2c1 [Example 215, N′-acetyl-4-amino-1-methyl-N-[[5-(trifluoromethyl)-1,3-benzothiazol-2-yl]methyl]pyrazolo[4,3-c]quinoline-8-carbohydrazide] | < 100
9 | < 1 | 54 | CC(=O)NN(Cc1nc2cc(C(F)(F)F)ccc2s1)C(=O)c1cc2c(cc1F)nc(N)c1cnn(C)c12 [Example 216, N′-acetyl-4-amino-7-fluoro-1-methyl-N-[[5-(trifluoromethyl)-1,3-benzothiazol-2-yl]methyl]pyrazolo[4,3-c]quinoline-8-carbohydrazide] | < 100
10 | < 1 | 6 | CN(C(=O)c1cocn1)N(Cc1ccc(C(F)(F)F)cc1)C(=O)c1ccc2nc(N)c3cnn(C)c3c2c1 [Example 218, N′-(4-amino-1-methyl-1H-pyrazolo[4,3-c]quinoline-8-carbonyl)-N-methyl-N′-(4-(trifluoromethyl)benzyl)oxazole-4-carbohydrazide] | < 100
11 | < 1 | 9 | CN(C(=O)c1ncco1)N(Cc1ccc(C(F)(F)F)cc1)C(=O)c1ccc2nc(N)c3cnn(C)c3c2c1 [Example 219, N′-(4-amino-1-methyl-1H-pyrazolo[4,3-c]quinoline-8-carbonyl)-N-methyl-N′-(4-(trifluoromethyl)benzyl)oxazole-2-carbohydrazide] | < 100
12 | 1 to 5 | 15 | CC(=O)N(C)N(Cc1ccc(-c2cnc(C(F)(F)F)cc2C)cc1F)C(=O)c1ccc2nc(N)c3cnn(C)c3c2c1 [Example 220, N′-acetyl-4-amino-N-(2-fluoro-4-(4-methyl-6-(trifluoromethyl)pyridin-3-yl)benzyl)-N′,1-dimethyl-1H-pyrazolo[4,3-c]quinoline-8-carbohydrazide] | < 100
13 | < 1 | 123 | CC(=O)N(C)N(Cc1ccc(-c2cnn(C(F)(F)F)c2)cc1F)C(=O)c1ccc2nc(N)c3cnn(C)c3c2c1 [Example 222, N′-acetyl-4-amino-N-(2-fluoro-4-(1-(trifluoromethyl)-1H-pyrazol-4-yl)benzyl)-N′,1-dimethyl-1H-pyrazolo[4,3-c]quinoline-8-carbohydrazide] | < 100
14 | 1 to 5 | 139 | CC(=O)N(C)N(Cc1ccc(-c2cn(C(F)(F)F)cn2)cc1F)C(=O)c1ccc2nc(N)c3cnn(C)c3c2c1 [Example 223, N′-acetyl-4-amino-N-(2-fluoro-4-(1-(trifluoromethyl)-1H-imidazol-4-yl)benzyl)-N′,1-dimethyl-1H-pyrazolo[4,3-c]quinoline-8-carbohydrazide] | < 100

Further lines, the compound ahead of its results:

Row | Structure (SMILES) | EC50 [2] [nM] | EC50 selectivity (SDMA assay) [2] | CC50 [1] [nM]
15 | COC(C)(C)C(=O)N(C)N(Cc1ccc(C(F)(F)F)cn1)C(=O)c1ccc2nc(N)c3cnn(C)c3c2c1 [Example 201, 4-amino-N′-(2-methoxy-2-methyl-propanoyl)-N′,1-dimethyl-N-[[5-(trifluoromethyl)-2-pyridyl]methyl]pyrazolo[4,3-c]quinoline-8-carbohydrazide] | 1 to 5 | 423 | < 100
16 | Nc1nc2ccc(C(=O)N(Cc3ccc(C(F)(F)F)cn3)N3CCCCC3=O)cc2c2[nH]ncc12 [Example 202, 4-amino-N-(2-oxo-1-piperidyl)-N-[[5-(trifluoromethyl)-2-pyridyl]methyl]-1H-pyrazolo[4,3-c]quinoline-8-carboxamide] | 1 to 5 | 10 | < 100
17 | CC(=O)N([C@@H]1CCOC1)N(Cc1ccc(C(F)(F)F)cn1)C(=O)c1ccc2nc(N)c3cnn(C)c3c2c1 [Example 206, N′-acetyl-4-amino-1-methyl-N′-[(3R)-tetrahydrofuran-3-yl]-N-[[5-(trifluoromethyl)-2-pyridyl]methyl]pyrazolo[4,3-c]quinoline-8-carbohydrazide] | > 5 | 220 | 100 to 1000
18 | CC(=O)N([C@H]1CCOC1)N(Cc1ccc(C(F)(F)F)cn1)C(=O)c1ccc2nc(N)c3cnn(C)c3c2c1 [Example 207, N′-acetyl-4-amino-1-methyl-N′-[(3S)-tetrahydrofuran-3-yl]-N-[[5-(trifluoromethyl)-2-pyridyl]methyl]pyrazolo[4,3-c]quinoline-8-carbohydrazide] | 1 to 5 | 364 | 100 to 1000
19 | Cn1ncc2c(N)nc3ccc(C(=O)N(Cc4nc5cc(Cl)ccc5n4C)N4CCCC4=O)cc3c21 [Example 208, 4-Amino-N-[(5-chloro-1-methyl-benzimidazol-2-yl)methyl]-1-methyl-N-(2-oxopyrrolidin-1-yl)pyrazolo[4,3-c]quinoline-8-carboxamide] | < 1 | 91 | < 100
20 | CC(=O)N(C)N(Cc1nc2cc(Cl)ccc2n1C)C(=O)c1ccc2nc(N)c3cnn(C)c3c2c1 [Example 209, N′-Acetyl-4-amino-N-[(5-chloro-1-methyl-benzimidazol-2-yl)methyl]-N′,1-dimethyl-pyrazolo[4,3-c]quinoline-8-carbohydrazide] | < 1 | 228 | < 100
21 | Cn1ncc2c(N)nc3ccc(C(=O)N(Cc4nc5cc(Cl)ccc5n4C)N4CCCCC4=O)cc3c21 [Example 211, 4-amino-N-((5-chloro-1-methyl-1H-benzo[d]imidazol-2-yl)methyl)-1-methyl-N-(2-oxopiperidin-1-yl)-1H-pyrazolo[4,3-c]quinoline-8-carboxamide] | < 1 | 142 | < 100
22 | CC(=O)N(C)N(Cc1cc2ccccc2s1)C(=O)c1ccc2nc(N)c3cnn(C)c3c2c1 [Example 213, N′-Acetyl-4-amino-N-(benzothiophen-2-ylmethyl)-N′,1-dimethyl-pyrazolo[4,3-c]quinoline-8-carbohydrazide] | < 1 | 209 | < 100
23 | CN(C(=O)C1CC1)N(Cc1ccc(Cl)cn1)C(=O)c1ccc2nc(N)c3cnn(C)c3c2c1 [Example 221, 4-amino-N-((5-chloropyridin-2-yl)methyl)-N′-(cyclopropanecarbonyl)-N′,1-dimethyl-1H-pyrazolo[4,3-c]quinoline-8-carbohydrazide] | 1 to 5 | 218 | < 100
24 | Cc1scnc1C(=O)N(C)N(Cc1ccc(C(F)(F)F)cn1)C(=O)c1ccc2nc(N)c3cnn(C)c3c2c1 [Example 226, N′-(4-amino-1-methyl-1H-pyrazolo[4,3-c]quinoline-8-carbonyl)-N,5-dimethyl-N′-((5-(trifluoromethyl)pyridin-2-yl)methyl)thiazole-4-carbohydrazide] | 1 to 5 | 86 | < 100

Reference: patent US20240254118A1, “PRMT5 INHIBITORS AND USES THEREOF” (Gilead Sciences, Inc., priority 2022, published 2024)
